Measured values published in US7875270B2, “Treatment solution and method for preventing posterior capsular opacification by selectively inducing detachment and/or death of lens epithelial cells” (Abbott Medical Optics Inc., priority 2002, dated 2011).

What was measured:
[1] = tested on: human LECs-CCCs freshly removed from cataract operation; assay: In situ treatment of LECs attached to capsulorhexis lens capsule (LECs-CCC); assay type: cell-based; conditions: 200 or 300 μm NEM in PBS
Experimental: The in situ effects of a treatment solution comprising dihydrochlorothiazide (DHCT) (a cotransport interference agent from the group of the thiazide and related diuretics) and hyperosmotic NaCl on human LECs is examined. The treatment is tested on LECs that are still attached to a continuous curvilinear capsulorhexis lens capsule (LECs-CCC) which are freshly removed from a human cataract operation.
The LECs-CCCs are obtained from a cataract operation and immediately put in freshly prepared Eagle's Minimum Essential Medium (MEM) supplemented with 2 mM glutamine, 25 mmol/L Hepes (pH 7.4) without foetal cow serum (FCS) and is transferred to the laboratory for evaluation. Viable LECs are identified by staining the LECs-CCCs for five minutes with 0.2% Trypan Blue. The sheets containing more than 70% viable LECs are used to assess the efficacy of the treatment. […]
In the first step, a hyperosmotic solution of NaCl is prepared by making a stock solution of 2 M NaCl by adding 58.44 g NaCl (supplied by Sigma Chemical Co., U.S.) to 500 ml dH2O. The desired concentration of osmotic NaCl is prepared by diluting the 2M stock solution with dH2O. For example, to make a hyperosmotic solution of 170 mM NaCl, the 2M NaCl stock solution was diluted with dH2O at a ratio of […]. To make a hyperosmotic solution of 200 mM NaCl, the 2M NaCl stock solution is diluted with dH2O at a ratio of 1 to 9. Final osmolarities (mOsm/kg/H2O) are determined by a freezing point depression method using cryoscopic osmometry.
In the second step, DHCT stock solution is made by adding 25 mg DHCT to 1 ml dH2O. […]
The treatment is applied by exposing the LECs-CCCs for five minutes in a small petri dish containing the treatment solution. The treatment solution is removed after five minutes exposure by a syringe and then the fresh PBS is added in the petri dish to wash away the treatment solution. The LECs-CCCs are washed three times. The changes of the LECS are monitored under a microscope. Microscope photographs are taken at 0, 2 and 5 minutes and after wash.

in vivo rabbit eyes [2] = assay: In vivo prevention of PCO after cataract operation in rabbit eyes; conditions: IOLs coated with 300 μm NEM in PBS, dried overnight, inserted into the lens capsular bag
in vivo rabbit eyes [3] = assay: as above; conditions: 200 or 300 μm NEM in PBS or 170 mM monnitol
Experimental: The experimental group includes sixteen rabbit eyes and the control group includes four rabbit eyes. A sham cataract operation is performed on the control animals. The therapy is introduced to the others.
The pupil of each rabbit eye is preoperatively dilated with topical G Phenylephrine 10% (Alcon Labs., Inc., China) and G Cyclopentolate 1% (Bausch & Lomb Pharm., Inc., USA) three times in one hour. The rabbits are anesthetized with ketamine hydrochloride (5 mg kg-1) and xylazine hydrochloride (2 mg kg-1) and placed on an operating table. A topical anesthetic (Dieaine hydrochloride 1%) is used every five minutes on two occasions. A wire lid speculum is placed to hold the eyelids open.
A 3.2 mm scleral tunnel incision into the eye is formed at the temporal limbus. The anterior chamber is maintained with viscoelastic substances and a 4-5 mm diameter continuous curvilinear capsularhexis (CCC) is made on the anterior surface of the lens to open its bag. The treatment solution is first introduced in the LECs by hydrodissection. This ensures that the treatment fluid immediately reaches under the entire anterior capsule/LECs. This process allows for (i) separation of the lens cortex from the capsule and lens epithelium, making removal of the lens cortex easier at a later stage of the operation and (ii) the LECs to be exposed to the treatment for enough time (more than five minutes in total time).
The crystalline lens is then removed using phacoemulsification (Universal II, Alcon Labs., Inc., China). The remaining cortex is aspirated thoroughly and removed as completely as possible to expose the LECs. The lens capsular bag is then partially filed with viscoelastic material in order to maintain its shape. The viscoelastic material should not cover the LECs when the treatment solution is applied.
The treatment is spread over the inner surface of the anterior capsular bag (where the LECs attach). The anterior capsular is continuously filled by using a syringe with a bent needle. Care is taken not to over flow the bag. After the treatment solution covered the capsule bag, it is left for five minutes and then removed using a syringe.
In a few cases, IOLs are inserted. […] At the same time, the incision is enlarged to 6.0 mm and a posterior ocular lens (IOLs) (poly-methyl methacrylate, PMMA) with a 6.5 mm optic is prepared and placed into the capsular bag.
The wound is closed with or without suture.
At the completion of the surgical procedure, each rabbit eye receives subconjunctival dexamethasone (0.25 ml) and gentamicin (0.25 ml). Postoperatively, atropine sulphate 1% ophthalmic solution and neomycin sulphate-polymyxin sulphate-dexamethasone ophthalmic ointment are administered twice daily for three weeks.
The animals are evaluated for three weeks and ten weeks. […] All rabbits are evaluated by slitlamp and scored for ocular responses at 1 day and at 1, 2 and 3 weeks. (See FIG. 17, Table 1.) Three and ten weeks after surgery, the animals are anesthetized using a 2 ml intramuscular injection of 11:1 mixture of ketamine hydrochloride and xylazine 20 mg/ml and then killed with a 2 ml intravenous injection of sodium pentobarbital.
The eye globes are enucleated (some of them fixed in neutral buffered formalin 10% solution for 24 hours) and are bisected coronally just anterior to the equator. Gross examination is performed to assess. PCO development. Photographs are taken from behind (Miyake-Apple posterior photographic technique) by using a digital camera fitted to an operating microscope (Leica/Wild MZ-8, Vashaw Scientific, Inc.).
The extent and severity of PCO is scored (see FIG. 17, Table 1) according to methods reported in the literature. The lens capsules are then fixed and evaluated under a microscope (Olumpus, Optical Co. Ltd.) and photographed with a digital camera.

For `CCN1C(=O)C=CC1=O` [NEM, N-ethylmaleimide], the “LEC changes after five minutes of acute exposure” value [1] was “almost no changes are observed”, the “LEC changes once put into PBS washing solution” value ([1]; after treatment) was “shrink and large gaps form between the cells. The shrunken cells then detach” and the “anterior chamber (AC) reaction” value (in vivo rabbit eyes [2]) was “significantly reduces the AC reaction”. The “LECs on the lens capsule bag under microscope” value (in vivo rabbit eyes [3]) was “no LECs on the lens capsule bag”, the “development of CPCO or PPCO” value (in vivo rabbit eyes [3]; 3 and 10 weeks follow up) was “no CPCO or PPCO develops” and the intraocular inflammatory reaction (in vivo rabbit eyes [3]; solution introduced directly) was “heavy intraocular inflammatory reaction in the early period and posterior synechiae”.
